For 8 compounds, EC50 results are on record in patent publication US6541450B1, “Parathyroid hormone analogues for the treatment of osteoporosis” (National Research Council of Canada, priority 1994, dated 2003).

The structures appear in SMILES notation. Where a SMILES comes first, the peptide text is derived from it. Bridges are numbered along the chain shown (N, C = ends). [ ]: non-standard residue; d: D form. Nle = CCCC[C@H](N)C(=O)O; Orn = NCCC[C@H](N)C(=O)O

What is called EC50 is the concentration that produces a half-maximal response.

The target in this assay is T1, adenylyl cyclase, ROS 17/2 cells (Rattus norvegicus, UniProt P25961).
T1 sequence (P25961 27-591): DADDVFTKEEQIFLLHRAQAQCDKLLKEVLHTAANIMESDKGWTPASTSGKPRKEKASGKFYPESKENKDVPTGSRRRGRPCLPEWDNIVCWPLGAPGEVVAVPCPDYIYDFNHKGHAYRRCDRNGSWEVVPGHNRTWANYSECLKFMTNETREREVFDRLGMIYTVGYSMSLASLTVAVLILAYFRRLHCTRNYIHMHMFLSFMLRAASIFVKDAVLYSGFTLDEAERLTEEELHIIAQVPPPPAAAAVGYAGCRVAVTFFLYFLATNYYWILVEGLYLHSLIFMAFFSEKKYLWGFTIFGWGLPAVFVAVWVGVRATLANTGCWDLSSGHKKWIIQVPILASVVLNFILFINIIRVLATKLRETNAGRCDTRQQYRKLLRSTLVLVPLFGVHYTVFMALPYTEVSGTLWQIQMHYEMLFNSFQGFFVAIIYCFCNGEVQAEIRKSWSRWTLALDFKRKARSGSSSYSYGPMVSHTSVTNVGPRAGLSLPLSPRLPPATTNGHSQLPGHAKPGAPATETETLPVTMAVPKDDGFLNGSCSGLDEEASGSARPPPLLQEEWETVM
Briefly: Adenylyl cyclase stimulation, [3H]-cyclic AMP production in ROS 17/2 cells. In kind it is cell-based. Conditions: ROS 17/2 cells; concentration for half-maximal increase in AC activity; read-out: Adenylyl Cyclase (EC50).
With `CC[C@H](C)[C@H](NC(=O)[C@H](CCC(=O)O)NC(=O)[C@H](CO)NC(=O)[C@@H](NC(=O)[C@@H](N)CO)C(C)C)C(=O)N[C@@H](CCC(N)=O)C(=O)N[C@@H](CC(C)C)C(=O)N[C@@H](CCSC)C(=O)N[C@@H](Cc1c[nH]cn1)C(=O)N[C@@H](CC(N)=O)C(=O)N[C@@H](CC(C)C)C(=O)NCC(=O)N[C@@H](CCCCN)C(=O)N[C@@H](Cc1c[nH]cn1)C(=O)N[C@@H](CC(C)C)C(=O)N[C@@H](CC(N)=O)C(=O)N[C@@H](CO)C(=O)N[C@@H](CCSC)C(=O)N[C@@H](CCC(=O)O)C(=O)N[C@@H](CCCNC(=N)N)C(=O)N[C@H](C(=O)N[C@H]1CSSC[C@@H](C(=O)N[C@@H](CC(C)C)C(=O)N[C@@H](CC(C)C)C(=O)N[C@@H](CCC(N)=O)C(=O)N[C@@H](CC(=O)O)C(=O)N[C@H](C(N)=O)C(C)C)NC(=O)[C@H](CCCNC(=N)N)NC(=O)[C@H](CC(C)C)NC(=O)[C@H](Cc2c[nH]c3ccccc23)NC1=O)C(C)C` [[Cys^22, Cys^26, Leu^27]cyclo(Cys^22—Cys^26)—hPTH—(1-31)-NH2] (H-SVSEIQLMHNLGKHLNSMERVCWLRCLLQDV-NH2; disulfide 22-26), the EC50 was 16 nM.

For `CC[C@H](C)[C@H](NC(=O)[C@H](CCC(=O)O)NC(=O)[C@H](CO)NC(=O)[C@@H](NC(=O)[C@@H](N)CO)C(C)C)C(=O)N[C@@H](CCC(N)=O)C(=O)N[C@@H](CC(C)C)C(=O)N[C@@H](CCSC)C(=O)N[C@@H](Cc1c[nH]cn1)C(=O)N[C@@H](CC(N)=O)C(=O)N[C@@H](CC(C)C)C(=O)NCC(=O)N[C@@H](CCCCN)C(=O)N[C@@H](Cc1c[nH]cn1)C(=O)N[C@@H](CC(C)C)C(=O)N[C@@H](CC(N)=O)C(=O)N[C@@H](CO)C(=O)N[C@@H](CCSC)C(=O)N[C@@H](CCC(=O)O)C(=O)N[C@@H](CCCNC(=N)N)C(=O)N[C@H](C(=O)N[C@@H](CCC(=O)O)C(=O)N[C@@H](Cc1c[nH]c2ccccc12)C(=O)N[C@@H](CC(C)C)C(=O)N[C@@H](CCCNC(=N)N)C(=O)N[C@H]1CSSC[C@@H](C(=O)N[C@H](C(N)=O)C(C)C)NC(=O)[C@H](CCC(N)=O)NC(=O)[C@H](CC(C)C)NC(=O)[C@H](CC(C)C)NC1=O)C(C)C` [[Cys^26, Cys^30, Leu^27]cyclo(Cys^26—Cys^30)—hPTH—(1-31)-NH2] (H-SVSEIQLMHNLGKHLNSMERVEWLRCLLQCV-NH2; disulfide 26-30), the EC50 came to 24 nM.

For the compound `CC[C@H](C)[C@H](NC(=O)[C@H](CCC(=O)O)NC(=O)[C@H](CO)NC(=O)[C@@H](NC(=O)[C@@H](N)CO)C(C)C)C(=O)N[C@@H](CCC(N)=O)C(=O)N[C@@H](CC(C)C)C(=O)N[C@@H](CCSC)C(=O)N[C@@H](Cc1c[nH]cn1)C(=O)N[C@@H](CC(N)=O)C(=O)N[C@@H](CC(C)C)C(=O)NCC(=O)N[C@@H](CCCCN)C(=O)N[C@@H](Cc1c[nH]cn1)C(=O)N[C@@H](CC(C)C)C(=O)N[C@@H](CC(N)=O)C(=O)N[C@@H](CO)C(=O)N[C@@H](CCSC)C(=O)N[C@@H](CCC(=O)O)C(=O)N[C@@H](CCCNC(=N)N)C(=O)N[C@H](C(=O)N[C@H]1CC(=O)NCCC[C@@H](C(=O)N[C@@H](CC(C)C)C(=O)N[C@@H](CC(C)C)C(=O)N[C@@H](CCC(N)=O)C(=O)N[C@@H](CC(=O)O)C(=O)N[C@H](C(N)=O)C(C)C)NC(=O)[C@H](CCCNC(=N)N)NC(=O)[C@H](CC(C)C)NC(=O)[C@H](Cc2c[nH]c3ccccc23)NC1=O)C(C)C` [[Leu^27]cyclo(Asp^22—Orn^26)—hPTH—(1-31)-NH2] (H-SVSEIQLMHNLGKHLNSMERVDWLR[Orn]LLQDV-NH2; lactam 22-26; N-terminus assumed), the EC50 is greater than 200 nM.

As for `CC[C@H](C)[C@H](NC(=O)[C@H](CCC(=O)O)NC(=O)[C@H](CO)NC(=O)[C@@H](NC(=O)[C@@H](N)CO)C(C)C)C(=O)N[C@@H](CCC(N)=O)C(=O)N[C@@H](CC(C)C)C(=O)N[C@@H](CCSC)C(=O)N[C@@H](Cc1c[nH]cn1)C(=O)N[C@@H](CC(N)=O)C(=O)N[C@@H](CC(C)C)C(=O)NCC(=O)N[C@@H](CCCCN)C(=O)N[C@@H](Cc1c[nH]cn1)C(=O)N[C@@H](CC(C)C)C(=O)N[C@@H](CC(N)=O)C(=O)N[C@@H](CO)C(=O)N[C@@H](CCSC)C(=O)N[C@@H](CCC(=O)O)C(=O)N[C@@H](CCCNC(=N)N)C(=O)N[C@H](C(=O)N[C@H]1CCC(=O)NCCCC[C@@H](C(=O)N[C@@H](CC(C)C)C(=O)N[C@@H](CC(C)C)C(=O)N[C@@H](CCC(N)=O)C(=O)N[C@@H](CC(=O)O)C(=O)N[C@H](C(=O)N[C@@H](Cc2c[nH]cn2)C(=O)N[C@@H](CC(N)=O)C(=O)N[C@@H](Cc2ccccc2)C(=O)O)C(C)C)NC(=O)[C@H](CCCNC(=N)N)NC(=O)[C@H](CC(C)C)NC(=O)[C@H](Cc2c[nH]c3ccccc23)NC1=O)C(C)C` [[Leu^27]cyclo(Glu^22—Lys^26)—hPTH—(1-34)-OH] (H-SVSEIQLMHNLGKHLNSMERVEWLRKLLQDVHNF-OH; lactam 22-26; N-terminus assumed), the half-maximal effective concentration (EC50) came out at 6 nM.

`CCCC[C@H](NC(=O)[C@H](CO)NC(=O)[C@H](CC(N)=O)NC(=O)[C@H](CC(C)C)NC(=O)[C@H](Cc1c[nH]cn1)NC(=O)[C@H](CCCCN)NC(=O)CNC(=O)[C@H](CC(C)C)NC(=O)[C@H](CC(N)=O)NC(=O)[C@H](Cc1c[nH]cn1)NC(=O)[C@H](CCCC)NC(=O)[C@H](CC(C)C)NC(=O)[C@H](CCC(N)=O)NC(=O)[C@@H](NC(=O)[C@H](CCC(=O)O)NC(=O)[C@H](CO)NC(=O)[C@@H](NC(=O)[C@@H](N)CO)C(C)C)[C@@H](C)CC)C(=O)N[C@@H](CCC(=O)O)C(=O)N[C@@H](CCCNC(=N)N)C(=O)N[C@H](C(=O)N[C@H]1CCC(=O)NCCCC[C@@H](C(=O)N[C@@H](CC(C)C)C(=O)N[C@@H](CC(C)C)C(=O)N[C@@H](CCC(N)=O)C(=O)N[C@@H](CC(=O)O)C(=O)N[C@H](C(N)=O)C(C)C)NC(=O)[C@H](CCCNC(=N)N)NC(=O)[C@H](CC(C)C)NC(=O)[C@H](Cc2c[nH]c3ccccc23)NC1=O)C(C)C` [[Nle^8.18, Leu^27]cyclo(Glu^22—Lys^26)—hPTH—(1-31)-NH2] (H-SVSEIQL[Nle]HNLGKHLNS[Nle]ERVEWLRKLLQDV-NH2; lactam 22-26; N-terminus assumed): the EC50 amounted to 6 nM.

In the case of `CCCC[C@H](NC(=O)[C@@H]1CCCCNC(=O)CC[C@H](NC(=O)[C@@H](NC(=O)[C@H](CCCNC(=N)N)NC(=O)[C@H](CCC(=O)O)NC(=O)[C@H](CCSC)NC(=O)[C@H](CO)NC(=O)[C@H](CC(N)=O)NC(=O)[C@H](CC(C)C)NC(=O)[C@H](Cc2c[nH]cn2)NC(=O)[C@H](CCCCN)NC(=O)CNC(=O)[C@H](CC(C)C)NC(=O)[C@H](CC(N)=O)NC(=O)[C@H](Cc2c[nH]cn2)NC(=O)[C@H](CCSC)NC(=O)[C@H](CC(C)C)NC(=O)[C@H](CCC(N)=O)NC(=O)[C@@H](NC(=O)[C@H](CCC(=O)O)NC(=O)[C@H](CO)NC(=O)[C@@H](NC(=O)[C@@H](N)CO)C(C)C)[C@@H](C)CC)C(C)C)C(=O)N[C@@H](Cc2c[nH]c3ccccc23)C(=O)N[C@@H](CC(C)C)C(=O)N[C@@H](CCCNC(=N)N)C(=O)N1)C(=O)N[C@@H](CC(C)C)C(=O)N[C@@H](CCC(N)=O)C(=O)N[C@@H](CC(=O)O)C(=O)N[C@H](C(N)=O)C(C)C` [[Nle^27]cyclo(Glu^22—Lys^26)—hPTH—(1-31)-NH2] (H-SVSEIQLMHNLGKHLNSMERVEWLRK[Nle]LQDV-NH2; lactam 22-26), the EC50 came out at 9 nM.

Consider `CC[C@H](C)[C@H](NC(=O)[C@H](CCC(=O)O)NC(=O)[C@H](CO)NC(=O)[C@@H](NC(=O)[C@@H](N)CO)C(C)C)C(=O)N[C@@H](CCC(N)=O)C(=O)N[C@@H](CC(C)C)C(=O)N[C@@H](CCSC)C(=O)N[C@@H](Cc1c[nH]cn1)C(=O)N[C@@H](CC(N)=O)C(=O)N[C@@H](CC(C)C)C(=O)NCC(=O)N[C@@H](CCCCN)C(=O)N[C@@H](Cc1c[nH]cn1)C(=O)N[C@@H](CC(C)C)C(=O)N[C@@H](CC(N)=O)C(=O)N[C@@H](CO)C(=O)N[C@@H](CCSC)C(=O)N[C@@H](CCC(=O)O)C(=O)N[C@@H](CCCNC(=N)N)C(=O)N[C@H](C(=O)N[C@H]1CCC(=O)NCCCC[C@@H](C(=O)N[C@@H](Cc2ccc(O)cc2)C(=O)N[C@@H](CC(C)C)C(=O)N[C@@H](CCC(N)=O)C(=O)N[C@@H](CC(=O)O)C(=O)N[C@H](C(N)=O)C(C)C)NC(=O)[C@H](CCCNC(=N)N)NC(=O)[C@H](CC(C)C)NC(=O)[C@H](Cc2c[nH]c3ccccc23)NC1=O)C(C)C` [[Tyr^27]cyclo(Glu^22—Lys^26)—hPTH—(1-31)-NH2] (H-SVSEIQLMHNLGKHLNSMERVEWLRKYLQDV-NH2; lactam 22-26; N-terminus assumed), for which the concentration giving a half-maximal response (EC50) was determined as 9 nM.

For `CC[C@H](C)[C@H](NC(=O)[C@H](CCC(=O)O)NC(=O)[C@H](CO)NC(=O)[C@@H](NC(=O)[C@@H](N)CO)C(C)C)C(=O)N[C@@H](CCC(N)=O)C(=O)N[C@@H](CC(C)C)C(=O)N[C@@H](CCSC)C(=O)N[C@@H](Cc1c[nH]cn1)C(=O)N[C@@H](CC(N)=O)C(=O)N[C@@H](CC(C)C)C(=O)NCC(=O)N[C@@H](CCCCN)C(=O)N[C@@H](Cc1c[nH]cn1)C(=O)N[C@@H](CC(C)C)C(=O)N[C@@H](CC(N)=O)C(=O)N[C@@H](CO)C(=O)N[C@@H](CCSC)C(=O)N[C@@H](CCC(=O)O)C(=O)N[C@@H](CCCNC(=N)N)C(=O)N[C@H](C(=O)N[C@H]1CCC(=O)NCCCC[C@@H](C(=O)N[C@@H](CCCCN)C(=O)N[C@@H](CC(C)C)C(=O)N[C@@H](CCC(N)=O)C(=O)N[C@@H](CC(=O)O)C(=O)N[C@H](C(N)=O)C(C)C)NC(=O)[C@H](CCCNC(=N)N)NC(=O)[C@H](CC(C)C)NC(=O)[C@H](Cc2c[nH]c3ccccc23)NC1=O)C(C)C` [cyclo(Glu^22—Lys^26)—hPTH—(1-31)-NH2], the concentration giving a half-maximal response (EC50) was 17 nM.
